Assay [1] has as its system MV4-11 cells. The experiment in a line: MV4-11 6-day cell growth CTG (CellTiter-Glo) assay. Type of assay: cell-based. The settings on record: Homo sapiens, MV4-11, 144 h, 6 days, read-out: (c) MLL/WDR5 cell proliferation assay//MLL/WDR5 proliferation MV4:11 Qualified AC50. The method, boiled down: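 IC50 comes from a dose-response fit of % inhibition relative to DMSO controls, with viable cells measured by CellTiter-Glo luminescence. Compounds were tested over 12 points (1:3, starting at 50 μM final) on MV4-11 cells plated at 300/well and grown 6 days.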

The target in assay [2] is WDR5 (Homo sapiens, UniProt P61964). Nature of the assay: WDR5 HTRF binding assay. Particulars: read-out: (a) WDR5 HTRF Pep Val v.1[Inhibitor/IC50]Qualified AC50. In outline:
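In this HTRF displacement format, biotinylated MLL1 WIN peptide (3762-3773, 20 nM) binds WDR5 (6 nM) in 25 mM Hepes pH 7.5 with 100 mM NaCl, 2 mM DTT and 0.1% BSA for 20 min at rt. Detection used streptavidin-APC/anti-His-Eu for 1 hr. IC50 came from dose-response fits of normalized signal; 15 nM biotin-PEG-His peptide served as counter assay.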

In assay [3] the target is wild type MLL1 four-member complex (MLL1-4C) (Homo sapiens, UniProt P61964). Nature of the assay: MLL1 LC-MS assay (SAH production). The format is biochemical. The settings on record: read-out: (b) MLL LCMS Peptide Val.v.1 Qualified AC50. In outline: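 SAH formation, measured by LC-MS/MS after a TFA quench containing d4-SAH, was normalised to no-compound and no-enzyme controls and fitted to a dose-response curve for IC50. Reactions ran 120 min at rt (pH 8.0 Tris buffer) with final 30 nM MLL1 four-member complex, 2.5 μM SAM and 10 μM biotinylated H3[1-21] peptide, after a 20-min enzyme/SAM-compound preincubation.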

Turning to `CCOc1cc([C@H](C)N2CCc3c(cc(Cn4ccnc4C)cc3-c3c[nH]c(=O)cc3C(F)(F)F)C2=O)ncc1C#N` [Example 269, (S)-4-Ethoxy-6-(1-(7-((2-methyl-1H-imidazol-1-yl)methyl)-1-oxo-5-(6-oxo-4-(trifluoromethyl)-1,6-dihydropyridin-3-yl)-3,4-dihydroisoquinolin-2(1H)-yl)ethyl)nicotinonitrile], the AC50 in assay [1] and in assay [3] was 10 to 1000 nM throughout. Also, in assay [2], the IC50 is below 10 nM.
Consider `CCOc1cc(C(C)N2CCc3c(cc(CCN(C)CC)cc3-c3cccnc3CC)C2=O)ncc1C#N` (stereo not drawn) [Example 151, 4-ethoxy-6-(1-(7-(2-(ethyl(methyl)amino)ethyl)-5-(2-ethylpyridin-3-yl)-1-oxo-3,4-dihydroisoquinolin-2(1H)-yl)ethyl)nicotinonitrile], for which the AC50 in assay [1] and in assay [3] was 10 to 1000 nM throughout. Besides, the IC50 in assay [2] fell in the range of 10 to 1000 nM.
Turning to `CCOc1cc(CN2CCc3c(Cl)cc(Cn4ccnc4NC)cc3C2=O)cnc1C#N` [Example 6, 5-((5-chloro-7-((2-(methylamino)-1H-imidazol-1-yl)methyl)-1-oxo-3,4-dihydroisoquinolin-2(1H)-yl)methyl)-3-ethoxypicolinonitrile], the AC50 in assay [1] and in assay [3] was 10 to 1000 nM throughout. Besides, the IC50 in assay [2] lay within 10 to 1000 nM.
For `CCOc1cc([C@H](C)N2CCc3c(CN4CC(F)C4)cc(Cn4ccnc4NC)cc3C2=O)cnc1C#N` [Example 41, (S)-3-ethoxy-5-(1-(5-((3-fluoroazetidin-1-yl)methyl)-7-((2-(methylamino)-1H-imidazol-1-yl)methyl)-1-oxo-3,4-dihydroisoquinolin-2(1H)-yl)ethyl)picolinonitrile], the AC50 in assay [1] and in assay [3] was 10 to 1000 nM each time. The IC50 in assay [2] was 10 to 1000 nM.
As for `CCOc1cc([C@@H](C)N2CCc3c(cc(CCN(C)CC)cc3-c3ccc(N)nc3C(F)(F)F)C2=O)ncc1C#N` [Example 199, (R)-6-(1-(5-(6-amino-2-(trifluoromethyl)pyridin-3-yl)-7-(2-(ethyl(methyl)amino)ethyl)-1-oxo-3,4-dihydroisoquinolin-2(1H)-yl)ethyl)-4-ethoxynicotinonitrile], the AC50 in assay [1] and in assay [3] was 10 to 1000 nM throughout. Also, the IC50 in assay [2] lay within 10 to 1000 nM.
For `CCOc1cc([C@H](C)N2CCc3c(cc(CCN4C[C@@H](O)[C@H]4C)cc3-c3cc(N)cnc3C(F)(F)F)C2=O)ncc1C#N` [Example 214], the AC50 in assay [1] and in assay [3] was 10 to 1000 nM each time. Also, the IC50 in assay [2] is below 10 nM.
As for `CCOc1cc([C@H](C)N2CCc3c(cc(Cn4ccnc4C)cc3-c3cc(C)nn3C)C2=O)ncc1C#N` [Example 280], the AC50 in assay [1] is below 10 nM; in assay [3], 10 to 1000 nM. Moreover, in assay [2], the IC50 was below 10 nM.
Turning to `CCOc1cc([C@H](C)N2CCc3c(cc(Cn4ccnc4NC)cc3N3CCCC3)C2=O)ncc1F` (single isomer, unassigned) [Example 88], the AC50 in assay [1] and in assay [3] was 10 to 1000 nM each time. The IC50 in assay [2] is below 10 nM.
Regarding `CCOc1cc(C(C)N2CCc3c(cc(CCN(C)CC)cc3C(C)(O)C(F)(F)F)C2=O)ncc1C#N` (stereo not drawn) [Example 304, 4-ethoxy-6-(1-(7-(2-(ethyl(methyl)amino)ethyl)-1-oxo-5-(1,1,1-trifluoro-2-hydroxypropan-2-yl)-3,4-dihydroisoquinolin-2(1H)-yl)ethyl)nicotinonitrile], the results for the AC50 in assay [1] and in assay [3] were 1000 to 25000 nM and 10 to 1000 nM, respectively. The IC50 in assay [2] lay within 10 to 1000 nM.
Regarding `CCOc1cc(C(C)N2CCc3c(cc(CCN(C)CC)cc3-c3cc4[nH]cnc4nc3C)C2=O)ncc1C#N` (stereo not drawn) [Example 206, 4-ethoxy-6-(1-(7-(2-(ethyl(methyl)amino)ethyl)-5-(5-methyl-1H-imidazo[4,5-b]pyridin-6-yl)-1-oxo-3,4-dihydroisoquinolin-2(1H)-yl)ethyl)nicotinonitrile], the AC50 in assay [1] and in assay [3] was 10 to 1000 nM each time. Moreover, in assay [2], the IC50 lay within 10 to 1000 nM.
On to `CCOc1cc([C@H](C)N2CCc3c(cc(CCN(C)CC(C)O)cc3-c3cc(C)cnc3C)C2=O)ncc1C#N` (stereo partly drawn) [Example 246], for which the AC50 in assay [1] and in assay [3] was 10 to 1000 nM in each case. The IC50 in assay [2] lay within 10 to 1000 nM.
As for `CCOc1cc(C(C)N2CCc3c(cc(CCN(C)CC)cc3-c3cc(Cl)cnc3C)C2=O)ncc1C#N` (stereo not drawn) [Example 197, 6-(1-(5-(5-chloro-2-methylpyridin-3-yl)-7-(2-(ethyl(methyl)amino)ethyl)-1-oxo-3,4-dihydroisoquinolin-2(1H)-yl)ethyl)-4-ethoxynicotinonitrile], the AC50 in assay [1] and in assay [3] was 10 to 1000 nM each time. Also, the IC50 in assay [2] lay in the range of 10 to 1000 nM.
As for `CNc1nccn1Cc1cc(-c2cc(CO)cnc2Cl)c2ccn(Cc3ccc(OC)c(F)c3)c(=O)c2c1` [Example 104, 5-(2-chloro-5-(hydroxymethyl)pyridin-3-yl)-2-(3-fluoro-4-methoxybenzyl)-7-((2-(methylamino)-1H-imidazol-1-yl)methyl)isoquinolin-1(2H)-one], the AC50 in assay [1] and in assay [3] was 10 to 1000 nM each time. The IC50 in assay [2] was in the range of 10 to 1000 nM.
`CCOc1cc([C@H](C)N2CCc3c(cc(Cn4ccnc4NC)cc3C(F)F)C2=O)ncc1F` [Example 91, (S)-5-(difluoromethyl)-2-(1-(4-ethoxy-5-fluoropyridin-2-yl)ethyl)-7-((2-(methylamino)-1H-imidazol-1-yl)methyl)-3,4-dihydroisoquinolin-1(2H)-one]: the AC50 in assay [1] and in assay [3] was 10 to 1000 nM throughout. Moreover, the IC50 in assay [2] lay in the range of 10 to 1000 nM.
Consider `CCOc1cc([C@H](C)N2CCc3c(cc(CCN(C)CC)cc3-c3cn(CCO)nc3C)C2=O)ncc1C#N` [Example 115, (S)-4-ethoxy-6-(1-(7-(2-(ethyl(methyl)amino)ethyl)-5-(1-(2-hydroxyethyl)-3-methyl-1H-pyrazol-4-yl)-1-oxo-3,4-dihydroisoquinolin-2(1H)-yl)ethyl)nicotinonitrile], for which the AC50 in assay [1] and in assay [3] was 10 to 1000 nM each time. The IC50 in assay [2] was below 10 nM.
On to `CCOc1cc([C@H](C)N2CCc3c(cc(Cn4ccnc4C)cc3-c3cn(C)nc3C)C2=O)nnc1C#N` (single isomer, unassigned) [Example 303], for which the AC50 in assay [1] and in assay [3] was below 10 nM each time. In addition, in assay [2], the IC50 is below 10 nM.
Regarding `CCOc1cc([C@H](C)N2CCc3c(cc(Cn4ccnc4NC)cc3C3CC3)C2=O)ncc1F` [Example 81, (S)-5-cyclopropyl-2-(1-(4-ethoxy-5-fluoropyridin-2-yl)ethyl)-7-((2-(methylamino)-1H-imidazol-1-yl)methyl)-3,4-dihydroisoquinolin-1(2H)-one], the AC50 in assay [1] and in assay [3] was 10 to 1000 nM each time. Also, in assay [2], the IC50 fell in the range of 10 to 1000 nM.
On to `CCOc1cc([C@H](C)N2CCc3c(cc(CCN4C[C@@H](O)[C@H]4C)cc3-c3cn(C)c(=O)cc3Cl)C2=O)ncc1C#N` [Example 215], for which the AC50 in assay [1] and in assay [3] was 10 to 1000 nM each time. Besides, the IC50 in assay [2] is below 10 nM.
`CNc1nccn1Cc1cc2c(c(-c3ccnn3C)c1)CCN(Cc1cc(OC)c(F)cn1)C2=O` [Example 60, 2-((5-fluoro-4-methoxypyridin-2-yl)methyl)-5-(1-methyl-1H-pyrazol-5-yl)-7-((2-(methylamino)-1H-imidazol-1-yl)methyl)-3,4-dihydroisoquinolin-1(2H)-one]: the AC50 in assay [1] and in assay [3] was 10 to 1000 nM throughout. In assay [2], the IC50 was in the range of 10 to 1000 nM.
